Experimental data: article PMC10447463, “Data-mining unveils structure–property–activity correlation of viral infectivity enhancing self-assembling peptides” (Nature Communications, 2023)
Like-named read-outs stand apart in the source and are kept apart here.

Experiments:
[1] = type: physicochemical; design: key to Fibril / Fibril Formation / TEM 2cat / Fibril: 1 = fibrils present; 0 non-fibrillar structures; details: for Fibril / Fibril Formation: 1 mg/mL, uranyl acetate stain, qualitative
[2] = type: physicochemical; details: for ThT Cat. / ThT-Fluorescence (categorical): ThT-active if fluorescence at least twice the control
In short: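 Preformed peptide fibrils (1 mg/mL) mixed with 50 µM ThT in PBS, 15 min at RT, fluorescence ex 440/em 488 nm versus PBS blank, triplicates. Zeta potential: peptides at 1 mg/mL in PBS pH 7.4, aged 1 d at RT, diluted in 1 mM KCl, Smoluchowski from electrophoretic mobility.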

[3] = Conversion rate (CR) assay with fluorescamine; type: physicochemical; design: key to CR: % = 100−100×filtrate/original fluorescence intensity
Protocol: For ATR FT–IR spectroscopy measurements, 200 µL of the respective 1 mg/mL PNF solution was lyophilized and the resulting powder used for measurement. All spectra were recorded on a Bruker Tensor 27 spectrometer with a diamond crystal as ATR element (PIKE MiracleTM, spectral resolution 2 cm^-1). Every sample was measured with 64 scans. Data were analyzed with OriginLab software and calculation of β–sheet content was conducted according to a previous report. TEM. For TEM measurements 5 µL of PNF fibrils (1 mg/mL) were placed on copper grids coated with carbon and formvar layer (300 mesh, Plano GmbH). After 10 min incubation time, the grids were staining with 4% uranyl acetate solution for 2.5 min and washed with water. Measurements were performed on a Jeol 1400 electron microscope with 120 kV acceleration voltage. CR Assay. For the determination of the amount of peptide monomer converting into nanostructures the amine reactive dye fluorescamine was used analogous to a previous reported protocol. Briefly, 100 µL of the preformed PNF solution was centrifuged in a Vivaspin 500 tube (3 kDa MWCO) to separate fibers from free peptide monomer (16200 x g, 4 °C, 45 min). The filtrate and 100 μL of the non-filtered PNF sample were lyophilized and dissolved in 30 μL DMSO. 10 μL of the filtrate and non-filtered DMSO samples were submitted in a black UV Star® 384 microliter well–plates (Greiner bio–one) and 3 μL of the fluorescamine solution (10 mg/mL, DMSO) was added to measure the fluorescence enhancement. After 20 min of incubation at RT, fluorescence was recorded on an Infinite® M1000 PRO microplate reader (Tecan) at λem = 470 nm upon excitation at λex = 365 nm with 10 nm bandwidths and multiple reads per well (3×3). Measurements were repeated in triplicates and averaged with standard deviation. All values were calculated as n-fold fluorescence enhancement (DMSO only as a reference was set to 1). The conversion rate CR was defined according to the equation Eq. (3).3 CR=100−100×fluorescenceintensityfiltrate/fluorescenceintensityoriginal[%]

[4] = Fig S10 panel D, fibril category by TEM
[5] = TEM, 1 = fibrils present, 0 = non-fibrillar
[6] = TEM, 1 = fibrils present, 0 = non-fibrillar structures
[7] = category: fibrils present or non-fibrillar
[8] = ThT fluorescence category, 1 if Rel. ThT >2
[9] = Fig. S7 panel B, conversion rate, fluorescamine assay
[10] = conversion rate, fluorescamine assay
[11] = FigS12 panel A, fibril category by TEM

| Substance | TEM 2cat [1, 4] | Fibril ([1]; Fig S10 panel E) | Fibril / Fibril Formation ([1]; TEM) | Fibril [1, 5] | Fibril [1, 6] | TEM 2cat [1, 7] | Tht category (> 2 to blank = +) ([2]; Fig S10 panel D) | ThT Cat. ([2]; Fig S10 panel E) | ThT Cat, ([2]; ThT category, 1 if Rel. ThT >2) | ThT Cat. [2, 8] | ThT Cat. / ThT-Fluorescence (categorical) [2] | CR / % [3, 9] [%] | CR [3, 10] | TEM 2cat [1, 11] | Fibril ([1]; FigS12 panel B, TEM) | Tht category (> 2 to blank = +) ([2]; FigS12 panel A) | ThT Cat, ([2]; FigS12 panel B) | ThT Cat. ([2]; ThT category, 1 if Rel. ThT >2) | further results |
| --- | --- | --- | --- | --- | --- | --- | --- | --- | --- | --- | --- | --- | --- | --- | --- | --- | --- | --- | --- |
| CKIKQIINMWQ | 1 | 1 | 1 | 1 | 1 | 1 | 1 (ThT. Cat is 1, if Rel. ThT >2) | 1 (ThT. Cat is 1, if Rel. ThT >2) | 1 (ThT. Cat is 1, if Rel. ThT >2) | 1 (ThT. Cat is 1, if Rel. ThT >2) | 1 (ThT. Cat is 1, if Rel. ThT >2) | 50 | 50 |  |  |  |  |  |  |
| KIKQII | 0 | 0 | 0 | 0 | 0 |  | 0 (ThT-inactive (N-Fold <2)) | 0 (ThT-inactive (N-Fold <2)) | 0 (ThT-inactive (N-Fold <2)) | 0 (ThT-inactive (N-Fold <2)) | 0 (ThT-inactive (N-Fold <2)) | 13 | 12.97 | 0 | 0 | 0 (ThT-inactive (N-Fold <2)) | 0 (ThT-inactive (N-Fold <2)) |  |  |
| QCKFKQFFNM |  | 1 | 1 | 1 | 1 | 1 | 1 (ThT. Cat is 1, if Rel. ThT >2) | 1 (ThT. Cat is 1, if Rel. ThT >2) | 1 (ThT. Cat is 1, if Rel. ThT >2) |  | 1 (ThT. Cat is 1, if Rel. ThT >2) | 98.7 | 98.67 |  |  |  |  | 1 (ThT. Cat is 1, if Rel. ThT >2) | TEM 2cat ([1]; Fig S10 panel D): 1 |
| CEFEFQFNMWQ | 1 | 1 | 1 | 1 | 1 | 1 | 1 (ThT. Cat is 1, if Rel. ThT >2) | 1 (ThT. Cat is 1, if Rel. ThT >2) | 1 (ThT. Cat is 1, if Rel. ThT >2) | 1 (ThT. Cat is 1, if Rel. ThT >2) | 1 (ThT. Cat is 1, if Rel. ThT >2) | 98.6 | 98.63 |  |  |  |  |  |  |
| EIEIQINM | 1 | 1 | 1 | 1 | 1 |  | 0 (ThT-inactive (N-Fold <2)) | 0 (ThT-inactive (N-Fold <2)) | 0 (ThT-inactive (N-Fold <2)) |  | 0 (ThT-inactive (N-Fold <2)) | 78.4 | 78.43 | 1 | 1 | 0 (ThT-inactive (N-Fold <2)) | 0 (ThT-inactive (N-Fold <2)) | 0 (ThT-inactive (N-Fold <2)) |  |
| CKIKIQIRGD | 1 | 1 | 1 | 1 | 1 | 1 | 0 (ThT-inactive (N-Fold <2)) | 0 (ThT-inactive (N-Fold <2)) | 0 (ThT-inactive (N-Fold <2)) | 0 (ThT-inactive (N-Fold <2)) | 0 (ThT-inactive (N-Fold <2)) | 91 | 91 |  |  |  |  |  |  |
| CEIEIQINMWQ | 1 | 1 | 1 | 1 | 1 | 1 | 1 (ThT. Cat is 1, if Rel. ThT >2) | 1 (ThT. Cat is 1, if Rel. ThT >2) | 1 (ThT. Cat is 1, if Rel. ThT >2) | 1 (ThT. Cat is 1, if Rel. ThT >2) | 1 (ThT. Cat is 1, if Rel. ThT >2) | 67 | 66.95 |  |  |  |  |  |  |
| KFKFKFQF | 1 | 1 | 1 | 1 | 1 | 1 | 1 (ThT. Cat is 1, if Rel. ThT >2) | 1 (ThT. Cat is 1, if Rel. ThT >2) | 1 (ThT. Cat is 1, if Rel. ThT >2) | 1 (ThT. Cat is 1, if Rel. ThT >2) | 1 (ThT. Cat is 1, if Rel. ThT >2) | 94 | 94 |  |  |  |  |  |  |
| CKIKIQINM | 1 | 1 | 1 | 1 | 1 | 1 | 1 (ThT. Cat is 1, if Rel. ThT >2) | 1 (ThT. Cat is 1, if Rel. ThT >2) | 1 (ThT. Cat is 1, if Rel. ThT >2) | 1 (ThT. Cat is 1, if Rel. ThT >2) | 1 (ThT. Cat is 1, if Rel. ThT >2) | 75.5 | 75.5 |  |  |  |  |  |  |
| QCKFKQFFNMWQ |  | 1 | 1 | 1 | 1 | 1 | 1 (ThT. Cat is 1, if Rel. ThT >2) | 1 (ThT. Cat is 1, if Rel. ThT >2) | 1 (ThT. Cat is 1, if Rel. ThT >2) |  | 1 (ThT. Cat is 1, if Rel. ThT >2) | 98.7 | 98.72 |  |  |  |  | 1 (ThT. Cat is 1, if Rel. ThT >2) | TEM 2cat ([1]; Fig S10 panel D): 1 |
| EIEIQINMWQ | 0 | 0 | 0 | 0 | 0 | 0 | 1 (ThT. Cat is 1, if Rel. ThT >2) | 1 (ThT. Cat is 1, if Rel. ThT >2) | 1 (ThT. Cat is 1, if Rel. ThT >2) |  | 1 (ThT. Cat is 1, if Rel. ThT >2) | 89.9 | 89.92 |  |  |  |  | 1 (ThT. Cat is 1, if Rel. ThT >2) |  |
| CKIKQII | 1 | 1 | 1 | 1 | 1 |  | 1 (ThT. Cat is 1, if Rel. ThT >2) | 1 (ThT. Cat is 1, if Rel. ThT >2) | 1 (ThT. Cat is 1, if Rel. ThT >2) | 1 (ThT. Cat is 1, if Rel. ThT >2) | 1 (ThT. Cat is 1, if Rel. ThT >2) | 55 | 55 | 1 | 1 | 1 (ThT. Cat is 1, if Rel. ThT >2) | 1 (ThT. Cat is 1, if Rel. ThT >2) |  |  |
| QCKAKAQANM |  | 0 | 0 | 0 | 0 |  | 0 (ThT-inactive (N-Fold <2)) | 0 (ThT-inactive (N-Fold <2)) | 0 (ThT-inactive (N-Fold <2)) |  | 0 (ThT-inactive (N-Fold <2)) | 55.9 | 55.94 | 0 | 0 | 0 (ThT-inactive (N-Fold <2)) | 0 (ThT-inactive (N-Fold <2)) | 0 (ThT-inactive (N-Fold <2)) | TEM 2cat ([1]; Fig S10 panel D): 0; Rel. ThT ([2]; n-fold ThT fluorescence vs control (PBS, 10% DMSO), 4 µL 1 mg/mL fibrils + 20 µL 50 µM ThT, 15 min RT, ex 440 / em 488 nm, triplicate): 1.4; CR / % ([3]; conversion of monomer to nanostructures, 3 kDa MWCO filtration, fluorescamine, ex 365 / em 470 nm, triplicate): 56% |
